Experiment: in vitro
Details: human, hela cells, % viability
Molecule `CCc1nc2c(Oc3nc4ccccc4s3)cccn2c1N(C=O)Cc1ccc(OC)cc1` [CBK147819] has a viability at 28.5 h, 10 µM of 107%. Work on `CCc1nc2c(OCCOC)cccn2c1N(CCOC)C(C)=O` [CBK147845] yielded a viability at 28.5 h, 10 µM of 97.4%. In the case of `CCc1nc2c(OCc3ccc(S(C)(=O)=O)cc3)cccn2c1N(CCOC)C(C)=O` [CBK147846], the viability at 28.5 h, 10 µM is reported as 87.4%. With `O=C(NC(c1ccc(-c2ccccc2)cc1)c1cnccn1)C1CCN(CCCN2C(=O)C3CCCCC3C2=O)CC1` (stereo not shown) [CBK147856] the viability at 28.5 h, 10 µM was 97.3%. `CCc1nc2c(OCC3CCCCO3)cccn2c1N(C)C(=O)c1ccc2c(c1)OCO2` (stereo not shown) [CBK147860] gave a viability at 28.5 h, 10 µM of 82.9%. In the case of `CCc1nc2c(OCc3ccccc3)cccn2c1N(C)C(=O)c1ccncc1` [CBK147876], the viability at 28.5 h, 10 µM is reported as 90%. Work on `Cc1nc2c(OCc3ccccc3)cccn2c1N(C)C(=O)C1CCCCC1` [CBK147884] yielded a viability at 28.5 h, 10 µM of 96.2%. In the case of `CCc1nc2c(OCc3ccccc3)cccn2c1N(Cc1ccc(OC)cc1)C(C)=O` [CBK147887], the viability at 28.5 h, 10 µM is reported as 89.8%. `CCc1nc2c(OCc3ccccc3)cccn2c1N(C)C(=O)Nc1ccccc1OC` [CBK147890] gave a viability at 28.5 h, 10 µM of 98.7%. Molecule `COc1ccccc1C(NC(=O)C1CCN(CCc2c[nH]c3ccccc23)CC1)c1ccccn1` (stereo not shown) [CBK147923] has a viability at 28.5 h, 10 µM of 87.8%. For `COc1ccc(OCCN2CCC(C(=O)NC(c3ccccn3)c3ccccc3OC)CC2)cc1` (stereo not shown) [CBK147938], the viability at 28.5 h, 10 µM was 86.3%. Work on `O=C(NC(c1ccc(Cl)cc1)c1ccsc1)C1CCN(CCOc2ccccc2)CC1` (stereo not shown) [CBK147951] yielded a viability at 28.5 h, 10 µM of 101%. In the case of `O=C(NC(c1ccc(Cl)cc1)c1ccsc1)C1CCN(CCc2ccc(F)cc2)CC1` (stereo not shown) [CBK147976], the viability at 28.5 h, 10 µM is reported as 88.4%. Molecule `O=C(NC(c1ccc(-c2ccccc2)cc1)c1cnccn1)C1CCN(CCOc2ccc3ccccc3c2)CC1` (stereo not shown) [CBK147982] has a viability at 28.5 h, 10 µM of 93.6%. For `O=C(NC(c1ccc(-c2ccccc2)cc1)c1cnccn1)C1CCN(C/C=C/c2ccccc2)CC1` (stereo not shown) [CBK147984], the viability at 28.5 h, 10 µM was 104%. Work on `CC(C)CN1CCC(C(=O)NC(c2ccc(Cl)cc2)c2cnccn2)CC1` (stereo not shown) [CBK148026] yielded a viability at 28.5 h, 10 µM of 96.6%. `CC(NC(=O)C1CCN(C2Cc3ccccc3C2)CC1)c1ccccc1` (stereo not shown) [CBK148031] gave a viability at 28.5 h, 10 µM of 95.7%. With `CC(NC(=O)C1CCN(Cc2cccnc2)CC1)c1ccc(F)cc1` (stereo not shown) [CBK148032] the viability at 28.5 h, 10 µM was 94.4%. Molecule `CC(NC(=O)C1CCN(Cc2ncc[nH]2)CC1)c1ccc(F)cc1` (stereo not shown) [CBK148037] has a viability at 28.5 h, 10 µM of 97%. With `CC(NC(=O)C1CCN(Cc2cccs2)CC1)c1ccc(F)cc1` (stereo not shown) [CBK148041] the viability at 28.5 h, 10 µM was 101%. For `COc1cc(/C=C/CN2CCC(C(=O)NC(C)c3ccc(F)cc3)CC2)ccc1OC(C)=O` (stereo not shown) [CBK148061], the viability at 28.5 h, 10 µM was 90.1%. Work on `COc1cc(OC)nc(C(NC(=O)C2CCN(CCN3C(=O)c4ccccc4C3=O)CC2)c2ccc(F)cc2)n1` (stereo not shown) [CBK148083] yielded a viability at 28.5 h, 10 µM of 103%. For `CCOCCN1CCC(C(=O)NC(c2ccc(F)cc2)c2nc(OC)cc(OC)n2)CC1` (stereo not shown) [CBK148087], the viability at 28.5 h, 10 µM was 98%. Molecule `COc1cccc(CCN2CCC(C(=O)NC(c3ccc(F)cc3)c3nc(OC)cc(OC)n3)CC2)c1` (stereo not shown) [CBK148089] has a viability at 28.5 h, 10 µM of 92.2%. Work on `COc1cc(OC)nc(C(NC(=O)C2CCN(CCc3c[nH]c4ccccc34)CC2)c2ccccc2C)n1` (stereo not shown) [CBK148101] yielded a viability at 28.5 h, 10 µM of 104%. With `O=C(NC(c1ccc(F)cc1)c1ccc2ccccc2n1)C1CCN(CCCN2CCOCC2)CC1` (stereo not shown) [CBK148118] the viability at 28.5 h, 10 µM was 91.8%. Work on `COc1cc(OC)nc(C(NC(=O)C2CCN(Cc3cccn3C)CC2)c2ccc(F)cc2)n1` (stereo not shown) [CBK148170] yielded a viability at 28.5 h, 10 µM of 104%. `Cn1cc(CN2CCC(C(=O)NC(c3ccc4c(c3)OCO4)c3ccccn3)CC2)c2ccccc21` (stereo not shown) [CBK148183] gave a viability at 28.5 h, 10 µM of 94%. Work on `O=C(NC(c1ccccc1)c1ccco1)C1CCN(CCN2C(=O)c3ccccc3C2=O)CC1` (stereo not shown) [CBK148297] yielded a viability at 28.5 h, 10 µM of 120%. For `CC(C)(C)C(=O)CN1CCC(C(=O)NC(c2ccccc2)c2ccco2)CC1` (stereo not shown) [CBK148298], the viability at 28.5 h, 10 µM was 109%. In the case of `Cc1ccccc1C(c1ncccc1C)N(C)C(=O)C1CCN(Cc2ccc(Cl)c(Cl)c2)CC1` (stereo not shown) [CBK148366], the viability at 28.5 h, 10 µM is reported as 92.2%.
